Key:
dopamine D2s receptor = dopamine D2s receptor (Homo sapiens, UniProt P14416); assay: Dopamine D2s receptor competition binding ([3H]spiperone)
Description: (§4) Competition binding experiments at dopamine D2s and D3 receptor were performed to determine the affinity of the compounds. […] Membrane preparations of transfected CHO-K1 cells stably expressing the human D2s or D3 receptor were performed according to Bautista-Aguilera et al. [26]. The competition binding experiments were conducted as previously reported [26, 27]. Briefly, membrane fractions (D2sR: 25 µg/200 µL; D3R: 20 µg/200 µL) were incubated with [^3H]spiperone (0.2 nM) and test compound for 120 min at room temperature. […] Non-specific binding was determined in the presence of 10 µM haloperidol. Haloperidol was also used as reference compound. Separation of the bound ligand from the free ligand was conducted by filtration through GF/B filters using deionized water.

dopamine D3 receptor = dopamine D3 receptor (Homo sapiens, UniProt P35462); assay: Dopamine D3 receptor competition binding ([3H]spiperone)
Description: as §4

[1] = target: T1, serotonin 5-HT7 receptor (5-HT7A) (Homo sapiens, UniProt P34969); assay: 5-HT7 receptor radioligand competition binding ([3H]-SB269970); details: human cloned 5-HT7A receptor, HEK293 membranes, 2 nM [3H]-SB269970; ± S.E.M., n = 3 in duplicate; read-out: Affinity Ki 5-HT7
T1 construct: expressed in transfected cells
Description: (§1) As a first step, competition radioligand binding assays were carried out for all the compounds at the single concentration of 10 µM, on membrane preparations from stable cell lines heterologously expressing the human cloned 5-HT1A, 5-HT2A, or 5-HT7 receptors. […] For the affinity determination at dopamine receptor subtypes, membrane fractions of human dopamine D2s, D3, D1, and D5 receptor-expressing cells were used. They were co-incubated with [^3H]spiperone (for D2s and D3 receptor) or [^3H]SCH23390 (for D1 and D5 receptor) and appropriate concentrations of test compound for 120 min. Bound radioligand was separated from the free ligand using filtration. Radioactivity was measured by liquid scintillation counting.
The affinity of the compounds for serotonin 5-HT7 receptor was evaluated in membrane preparations from HEK293 cells stably expressing the human cloned 5-HT7A receptor, following previously described procedures with minor modifications. Competition binding experiments were performed using 2 nM [^3H]-SB269970 (34.5 Ci/mmol, 0.25 mCi/mL, Perkin Elmer NET1198U250UC) as radioligand. […] Methiothepine was included in the assays as reference compound. Assays were carried out in duplicate in 96-well assay plates, in assay buffer (50 mM Tris-HCl, 4 mM MgCl2, 1 mM ascorbic acid, 0.1 mM pargyline, pH = 7.4). Assay mixtures were incubated at 37 °C for 60 min, followed by filtration through GF/C glass filter plates, and washing with ice-cold assay buffer. Affinity (equilibrium dissociation constant, Ki) of the compounds was calculated from competition binding curves as indicated above.

[2] = target: T2, serotonin 5-HT1A receptor (Homo sapiens, UniProt P08908); assay: 5-HT1A receptor radioligand competition binding ([3H]-8-Hydroxy-DPAT); details: human cloned receptor, HEK293 membranes, 1 nM [3H]-8-Hydroxy-DPAT; ± S.E.M., n = 3 in duplicate; read-out: Affinity Ki 5-HT1A
T2 construct: expressed in transfected cells
T2 sequence (P08908 1-422): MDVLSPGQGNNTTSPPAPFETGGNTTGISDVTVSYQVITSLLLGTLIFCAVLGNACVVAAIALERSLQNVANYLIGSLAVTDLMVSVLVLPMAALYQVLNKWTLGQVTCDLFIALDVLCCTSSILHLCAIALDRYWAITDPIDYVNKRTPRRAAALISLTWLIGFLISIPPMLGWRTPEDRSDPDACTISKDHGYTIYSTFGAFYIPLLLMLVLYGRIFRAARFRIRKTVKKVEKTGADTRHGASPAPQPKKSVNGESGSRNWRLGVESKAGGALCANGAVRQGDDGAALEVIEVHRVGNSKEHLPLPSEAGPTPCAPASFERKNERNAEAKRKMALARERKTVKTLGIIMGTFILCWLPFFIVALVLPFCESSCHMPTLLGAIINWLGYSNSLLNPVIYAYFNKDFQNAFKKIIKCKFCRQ
Description: as §1
The affinity of the compounds for serotonin 5-HT1A receptor was evaluated in membrane preparations from HEK293 cells stably expressing the human cloned receptor, following previously described procedures with minor modifications. Competition binding experiments were performed using 1 nM [^3H]-8-Hydroxy-DPAT (1 mCi/mL, PerkinElmer NET929250UC) as radioligand. Nonspecific binding was assessed in the presence of 10 µM serotonin. […] Assays were carried out in duplicate in 96-well assay plates, in assay buffer (50 mM Tris-HCl, 5 mM MgSO4, pH = 7.4). Assay mixtures were incubated at 37 °C for 120 min, followed by filtration through GF/C glass filter plates, and washed with ice-cold wash buffer (50 mM Tris-HCl, pH = 7.4).

[3] = Stability assay in rat liver microsomes; type: in vitro ADME; details: pH 7.4; rat liver microsomes, 30 min incubation, NADPH-regenerating system, 10 μM; read-out: Metabolic Stability (percentage of recovery of the parent compound)
Description: To evaluate the susceptibility to first-pass oxidative metabolism, the leading cause of metabolic degradation in vivo [17] the target compounds were incubated with rat liver microsomes. The turnover of the parent compound was assessed as the percentage of the parent compound recovered after 30 min of incubation with microsomes in the presence of an NADPH-regenerating system.
Test compounds were pre-incubated at 37 °C with rat liver microsomes (Tebu-Bio, Milan, Italy) (1.0 mg/mL microsomal protein) at 10 μM final concentration in 100 mM potassium phosphate buffer (pH 7.4) for 10 min. Metabolic reactions were initiated by the addition of the NADPH regenerating system (containing 10 mM NADP, 50 mM glucose-6-phosphate, and 10 unit/mL glucose-6-phosphate dehydrogenase, final glucose-6-phosphate dehydrogenase concentration, 1 unit/mL). After 30 min incubation, the reaction mixture was quenched by adding an equal volume of cold acetonitrile containing the internal standard. A test compound incubated with microsomes without NADPH regenerating system was included. Quenched samples were centrifuged at 4500 rpm for 15 min and the supernatants were injected for quantification analysis. Samples (100 μL) were analyzed by using an Agilent 1260 Infinity Binary LC System equipped with a diode array detector (Open Lab software was used to analyze the chromatographic data) and a Phenomenex Gemini C-18 column (250 mm × 4.6 mm, 5 μm particle size). The samples were eluted using CH3CN/20 mM ammonium formate pH 5.5 (7:3, v/v) as eluent (volumetric flow rate =1 mL/min). Concentrations were quantified by measuring the area under the peak.
The percentage of the parent compound remaining after a 30-min incubation was calculated according to the equation:% of parent compound remaining after 30 min = Cparent/Ccontrol × 100(1) where Cparent is ligand concentration after incubation with microsome fraction and NADPH regenerating system and Ccontrol is ligand concentration after incubation with microsome fraction only.

dopamine D1 receptor = target: T3, dopamine D1 receptor (Homo sapiens, UniProt P21728); assay: Dopamine D1 receptor competition binding ([3H]-SCH23390); details: HEK-293 membranes, [3H]-SCH23390 0.3 nM, mean (CI 95%), read-out: Affinity Ki D1
T3 construct: expressed in transfected cells
Description: as §1, with “The final compounds were tested for their affinity at serotonin 5-HT1A, 5-HT2A, and 5-HT7 receptors and at dopamine D1, D2, D3, and D5 receptors. As” for “As”
(§2) The affinity for dopamine D1 and D5 receptors was evaluated in membrane fractions of HEK-293 cells stably expressing the human dopamine D1 or D5 receptor. HEK-293-D1 cells were cultured in DMEM/F12 (15 mM HEPES, 1.2 g/L NaHCO3) with 10% (v/v) FBS and 1% (v/v) L-glutamine. HEK-293-D5 cells were cultured in DMEM/F12 (with L-glutamine, 1.2 g/L NaHCO3) with 20% (v/v) FBS. Preparation of membrane fractions and radioligand competition assays were performed as previously described. Briefly, membrane fractions were co-incubated with [^3H]-SCH23390 (0.3 nM) and different concentrations of test compound for 120 min at room temperature. Fluphenazine (100 µM) was used to determine non-specific binding and as reference compound.
(§3) Data of at least three independent experiments in triplicate were analyzed using GraphPad Prism 8.1 (San Diego, CA, USA). Binding curves were fitted to a non-linear regression model (one-site competition). Ki values were calculated from IC50 values using the Cheng–Prusoff equation. The statistical calculations were performed on –log(Ki).

[4] = target: T4, serotonin 5-HT2A receptor (Homo sapiens, UniProt P28223); assay: 5-HT2A receptor radioligand competition binding ([3H]-ketanserin); details: human cloned receptor, CHO-K1 membranes, 1 nM [3H]-ketanserin; ± S.E.M., n = 3 in duplicate; read-out: Affinity Ki 5-HT2A
T4 construct: expressed in transfected cells

dopamine D5 receptor = target: T5, dopamine D5 receptor (Homo sapiens, UniProt P21918); assay: Dopamine D5 receptor competition binding ([3H]-SCH23390); details: HEK-293 membranes, [3H]-SCH23390 0.3 nM, mean (CI 95%), read-out: Affinity Ki D5
T5 construct: expressed in transfected cells
Description: as §1, with “The final compounds were tested for their affinity at serotonin 5-HT1A, 5-HT2A, and 5-HT7 receptors and at dopamine D1, D2, D3, and D5 receptors. As” for “As”
as §2, §3

T3 sequence (P21728 whole entry): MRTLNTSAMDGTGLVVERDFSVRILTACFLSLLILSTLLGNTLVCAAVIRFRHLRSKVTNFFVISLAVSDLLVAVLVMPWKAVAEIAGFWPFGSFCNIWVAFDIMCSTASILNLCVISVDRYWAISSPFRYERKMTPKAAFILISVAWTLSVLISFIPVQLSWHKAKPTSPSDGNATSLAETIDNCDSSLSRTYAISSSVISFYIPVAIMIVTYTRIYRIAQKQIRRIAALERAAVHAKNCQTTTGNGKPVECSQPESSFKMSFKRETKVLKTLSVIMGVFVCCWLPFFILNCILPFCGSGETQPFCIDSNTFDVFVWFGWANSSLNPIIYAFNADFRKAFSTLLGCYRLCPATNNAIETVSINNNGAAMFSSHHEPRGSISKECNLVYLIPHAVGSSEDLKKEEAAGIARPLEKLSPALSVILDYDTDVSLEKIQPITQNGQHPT
dopamine D3 receptor, sequence (P35462 whole entry): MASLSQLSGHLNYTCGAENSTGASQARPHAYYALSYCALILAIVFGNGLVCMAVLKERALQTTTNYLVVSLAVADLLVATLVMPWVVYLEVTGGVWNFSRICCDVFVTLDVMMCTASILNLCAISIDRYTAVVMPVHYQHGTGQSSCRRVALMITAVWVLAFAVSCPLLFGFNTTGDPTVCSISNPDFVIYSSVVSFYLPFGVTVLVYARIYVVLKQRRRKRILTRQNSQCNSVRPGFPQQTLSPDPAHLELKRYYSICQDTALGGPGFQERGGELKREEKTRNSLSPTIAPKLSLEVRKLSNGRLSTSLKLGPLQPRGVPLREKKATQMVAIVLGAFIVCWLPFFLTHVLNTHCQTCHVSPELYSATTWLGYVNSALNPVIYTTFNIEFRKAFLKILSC
T5 sequence (P21918 whole entry): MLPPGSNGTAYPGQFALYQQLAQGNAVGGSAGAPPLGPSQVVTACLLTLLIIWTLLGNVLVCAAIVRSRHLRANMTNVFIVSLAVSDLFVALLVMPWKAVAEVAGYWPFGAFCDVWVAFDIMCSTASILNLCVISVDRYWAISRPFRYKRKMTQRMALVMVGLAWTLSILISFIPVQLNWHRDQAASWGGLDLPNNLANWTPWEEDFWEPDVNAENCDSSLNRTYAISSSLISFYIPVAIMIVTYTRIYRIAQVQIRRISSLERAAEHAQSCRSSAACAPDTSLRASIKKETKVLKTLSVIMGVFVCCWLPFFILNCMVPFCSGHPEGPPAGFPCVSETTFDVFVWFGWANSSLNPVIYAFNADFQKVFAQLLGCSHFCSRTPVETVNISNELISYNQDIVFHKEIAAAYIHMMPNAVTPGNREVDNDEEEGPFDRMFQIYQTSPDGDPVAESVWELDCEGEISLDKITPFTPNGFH
T4 sequence (P28223 whole entry): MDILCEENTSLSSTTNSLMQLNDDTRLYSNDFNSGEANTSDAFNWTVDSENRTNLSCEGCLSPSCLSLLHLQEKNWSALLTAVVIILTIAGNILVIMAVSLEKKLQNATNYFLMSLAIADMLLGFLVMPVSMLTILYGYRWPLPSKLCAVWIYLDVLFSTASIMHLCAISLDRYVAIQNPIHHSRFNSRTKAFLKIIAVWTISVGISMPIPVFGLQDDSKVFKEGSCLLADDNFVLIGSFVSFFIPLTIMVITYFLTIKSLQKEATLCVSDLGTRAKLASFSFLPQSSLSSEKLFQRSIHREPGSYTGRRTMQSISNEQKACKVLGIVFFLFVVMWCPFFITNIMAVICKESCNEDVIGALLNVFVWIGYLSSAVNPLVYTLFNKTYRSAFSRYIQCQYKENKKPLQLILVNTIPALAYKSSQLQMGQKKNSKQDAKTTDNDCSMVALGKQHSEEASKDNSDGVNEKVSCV
dopamine D2s receptor, sequence (P14416 1-414 isoform P14416-2): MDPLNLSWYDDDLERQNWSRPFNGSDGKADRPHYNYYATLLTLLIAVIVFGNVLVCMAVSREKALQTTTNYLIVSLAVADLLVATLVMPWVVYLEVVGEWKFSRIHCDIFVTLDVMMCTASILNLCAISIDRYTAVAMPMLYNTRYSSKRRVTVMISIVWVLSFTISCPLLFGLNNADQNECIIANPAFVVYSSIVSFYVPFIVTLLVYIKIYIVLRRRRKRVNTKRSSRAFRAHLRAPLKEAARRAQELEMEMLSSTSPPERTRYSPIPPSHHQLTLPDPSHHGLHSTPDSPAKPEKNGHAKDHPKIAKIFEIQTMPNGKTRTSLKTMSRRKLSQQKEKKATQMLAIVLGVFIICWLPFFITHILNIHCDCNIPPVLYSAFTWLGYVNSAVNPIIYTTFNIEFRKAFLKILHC
T1 sequence (P34969 1-445 isoform P34969-2): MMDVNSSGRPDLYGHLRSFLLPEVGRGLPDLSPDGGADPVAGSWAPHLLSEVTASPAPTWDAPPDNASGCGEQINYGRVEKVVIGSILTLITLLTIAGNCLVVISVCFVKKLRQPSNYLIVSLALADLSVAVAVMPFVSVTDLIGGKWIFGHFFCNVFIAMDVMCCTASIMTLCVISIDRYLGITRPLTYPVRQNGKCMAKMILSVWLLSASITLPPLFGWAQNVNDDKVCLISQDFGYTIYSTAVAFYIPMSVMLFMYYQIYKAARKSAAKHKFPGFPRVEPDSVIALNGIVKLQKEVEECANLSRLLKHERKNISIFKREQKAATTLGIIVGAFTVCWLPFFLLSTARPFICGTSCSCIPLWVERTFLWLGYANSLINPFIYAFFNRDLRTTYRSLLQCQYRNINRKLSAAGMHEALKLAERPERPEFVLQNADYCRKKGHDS

Ki (dopamine D2s receptor): > 10000 nM
Ki (dopamine D3 receptor): > 10000 nM
Ki [1]: 60.8 ± 7.1 nM
Ki [2]: 653 ± 95 nM
remaining at 30 min, 10 μM [3]: < 3%
Ki (dopamine D1 receptor): 193 nM
Ki [4]: 49.1 ± 12 nM
Ki (dopamine D5 receptor): 413 nM
SMILES: COc1ccc(-c2cc(F)ccc2N2CCN(CCCn3ncc(=O)n(C)c3=O)CC2)cc1 [Compound 9a, 2-(3-(4-(5-Fluoro-4’-methoxy-[1,1’-biphenyl]-2-yl)piperazin-1-yl)propyl)-4-methyl-1,2,4-triazine-3,5(2H,4H)-dione]

— article PMC8877291, “Design and Synthesis of Arylpiperazine Serotonergic/Dopaminergic Ligands with Neuroprotective Properties” (Molecules, 2022)
